Reference: patent US20240376090A1, “ISOXAZOLE DERIVATIVES AS MODULATORS OF THE 5-HT2A SEROTONIN RECEPTOR USEFUL FOR THE TREATMENT OF DISORDERED RELATED THERETO” (Arena Pharmaceuticals, Inc., priority 2020, published 2024)

Legend:
5-HT2C receptor = 5-HT2C receptor (Homo sapiens (Human), UniProt P28335); assay: HTRF IP-One antagonist assay, 5-HT2C; type: cell-based; conditions: HEK293 cells stably expressing recombinant human receptor; IP accumulation with 80 nM 5-HT
Experimental: (§1) HEK293 cells stably expressing 5-HT2 receptors were generated using standard procedures. Cells were dilution cloned and clonal cell lines stably expressing the receptors at low levels were selected for pharmacology studies. In radioligand binding studies using a variety of radiolabeled probes, receptor densities in the 2A, 2B and 2C cell lines were estimated to be 50-70, 150-200, and 10-20 fmol/mg, respectively.
(§2) Inositol phosphate accumulation assays were performed using the HTRF IP-One assay system developed by Cisbio and generally followed the manufacturer's instructions. Briefly, HEK293 cells stably expressing recombinant human receptors were harvested and resuspended in phenol-red free OptiMEM (ThermoFisher), plated into 384-well assay plates (Perkin Elmer, ProxiPlate-Plus® Cat #6008280) at 10,000 cells/well in a volume of 10 μL/well, and incubated overnight at 37° C., 5% CO2. Test compounds were solubilized and serially diluted in DMSO, and then diluted into Assay Buffer (Tris HCl 20 mM, NaCl 150 mM, LiCl 40 mM, pargyline 25 μM, pH 8) containing 80 nM 5-HT. Test compounds were added to the cells (4 μL/well addition, maximal final assay concentration typically 10 μM) and plates, incubated for 2 hrs at 37° C./5% CO2 and then removed from the incubator and allowed to cool to room temperature for 30 minutes prior to addition of IP-One detection reagents. IP-One detection reagents (6 μL/well) were added and plates incubated for 1 hr at room temperature before reading on an HTRF compatible reader such as a Perkin Elmer EnVision® or BMG PheraStar®. Dose-response experiments utilized 10-point curves, typically starting at 10 μM, with 5-fold serial dilutions. Experiments were performed with triplicate data points and independent replicate experiments were performed to ensure data consistency.

5-HT2B receptor = 5-HT2B receptor (Homo sapiens (Human), UniProt P41595); assay: HTRF IP-One antagonist assay, 5-HT2B; type: cell-based; conditions: HEK293 cells stably expressing recombinant human receptor; IP accumulation with 80 nM 5-HT
5-HT2B receptor, sequence (P41595 whole entry): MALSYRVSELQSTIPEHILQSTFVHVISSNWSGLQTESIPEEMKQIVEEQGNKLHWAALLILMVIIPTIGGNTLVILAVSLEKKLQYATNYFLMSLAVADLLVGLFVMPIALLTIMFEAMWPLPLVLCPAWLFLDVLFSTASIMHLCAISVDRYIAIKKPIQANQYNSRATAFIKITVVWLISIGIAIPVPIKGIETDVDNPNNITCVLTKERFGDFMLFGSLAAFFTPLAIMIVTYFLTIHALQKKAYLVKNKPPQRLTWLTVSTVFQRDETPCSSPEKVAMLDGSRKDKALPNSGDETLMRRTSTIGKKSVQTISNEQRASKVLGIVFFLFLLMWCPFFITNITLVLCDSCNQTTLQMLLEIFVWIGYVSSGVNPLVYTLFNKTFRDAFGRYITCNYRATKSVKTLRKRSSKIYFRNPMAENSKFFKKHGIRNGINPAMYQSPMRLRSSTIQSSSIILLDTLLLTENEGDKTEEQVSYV
Experimental: as §1, §2

5-HT2A receptor [1] = molecular target: T1, 5-HT2A receptor (Homo sapiens (Human), UniProt P28223); assay: Radioligand binding assay ([3H]5-HT competition), 5-HT2A; conditions: [3H]5-HT radioligand, membranes of HEK293 cells expressing recombinant 5-HT2A; Ki from IC50 by Cheng-Prusoff; read-out: 5-HT2A serotonin binding Ki value
T1 sequence (P28223 whole entry): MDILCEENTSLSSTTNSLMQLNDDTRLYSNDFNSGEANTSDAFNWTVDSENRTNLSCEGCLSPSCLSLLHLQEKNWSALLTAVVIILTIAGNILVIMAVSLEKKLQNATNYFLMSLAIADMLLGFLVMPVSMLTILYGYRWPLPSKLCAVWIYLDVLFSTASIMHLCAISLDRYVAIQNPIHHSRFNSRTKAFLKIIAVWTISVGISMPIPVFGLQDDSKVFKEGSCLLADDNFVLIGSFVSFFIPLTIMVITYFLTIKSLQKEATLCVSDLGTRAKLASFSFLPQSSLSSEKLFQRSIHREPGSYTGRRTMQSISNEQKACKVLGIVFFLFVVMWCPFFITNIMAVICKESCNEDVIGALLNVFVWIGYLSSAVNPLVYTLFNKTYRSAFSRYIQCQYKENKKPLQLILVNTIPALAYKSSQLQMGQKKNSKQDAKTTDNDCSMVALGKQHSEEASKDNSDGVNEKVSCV

5-HT2A receptor [2] = molecular target: T1, 5-HT2A receptor; assay: HTRF IP-One antagonist assay, 5-HT2A; type: cell-based; conditions: HEK293 cells stably expressing recombinant human receptor; IP accumulation with 80 nM 5-HT
Experimental: as §1, §2

5-HT2C receptor, sequence (P28335 33-458): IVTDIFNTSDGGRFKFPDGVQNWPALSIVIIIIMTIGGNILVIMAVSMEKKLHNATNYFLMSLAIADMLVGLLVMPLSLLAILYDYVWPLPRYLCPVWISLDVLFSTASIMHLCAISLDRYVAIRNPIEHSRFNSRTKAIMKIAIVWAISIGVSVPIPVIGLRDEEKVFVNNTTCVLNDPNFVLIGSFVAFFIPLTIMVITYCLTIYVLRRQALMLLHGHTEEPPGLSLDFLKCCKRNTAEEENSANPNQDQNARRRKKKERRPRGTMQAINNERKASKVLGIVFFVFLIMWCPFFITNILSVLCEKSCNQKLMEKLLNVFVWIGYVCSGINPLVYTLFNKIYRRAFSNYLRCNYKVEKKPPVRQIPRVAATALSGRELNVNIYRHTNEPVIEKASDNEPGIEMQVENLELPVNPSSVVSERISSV

| IC50 (5-HT2C receptor) [nM] | IC50 (5-HT2B receptor) [nM] | Ki (5-HT2A receptor [1]) [nM] | IC50 (5-HT2A receptor [2]) [nM] | Compound |
| --- | --- | --- | --- | --- |
| ≥ 100000 | ≥ 100000 | 6.94 | 35 | Cc1noc(C)c1-c1cc(NC(=O)c2ccccc2)ccc1OC1CNC1 [Compound 241, N-(4-(azetidin-3-yloxy)-3-(3,5-dimethylisoxazol-4-yl)phenyl)benzamide] |
| ≥ 100000 | ≥ 100000 | 4.72 | 20.7 | CCOC1CC1C(=O)Nc1ccc(OC[C@H]2CCCCN2)c(-c2c(C)noc2C)c1 (stereo partly drawn) [Compound 229, N-(3-(3,5-dimethylisoxazol-4-yl)-4-(((R)-piperidin-2-yl)methoxy)phenyl)-2-ethoxycyclopropane-1-carboxamide] |
| ≥ 100000 | ≥ 100000 | 4.68 | 53.4 | COc1cccc(CC(=O)Nc2ccc(OC[C@H]3CCCCN3)c(-c3c(C)noc3C)c2)c1 [Compound 222, (R)—N-(3-(3,5-dimethylisoxazol-4-yl)-4-(piperidin-2-ylmethoxy)phenyl)-2-(3-methoxyphenyl)acetamide] |
| ≥ 100000 | ≥ 100000 | 3.92 | 24.9 | Cc1noc(C)c1-c1cc(NC(=O)c2cccn2C)ccc1OC[C@H]1CCCCN1 [Compound 189, (R)—N-(3-(3,5-dimethylisoxazol-4-yl)-4-(piperidin-2-ylmethoxy)phenyl)-1-methyl-1H-pyrrole-2-carboxamide] |
| ≥ 100000 | ≥ 100000 | 5.08 | 15.7 | Cc1noc(C)c1-c1cc(NC(=O)C2CC2)ccc1OCCN1CCC(O)CC1 [Compound 146, N-(3-(3,5-dimethylisoxazol-4-yl)-4-(2-(4-hydroxypiperidin-1-yl)ethoxy)phenyl)cyclopropanecarboxamide] |
| ≥ 100000 | ≥ 100000 | 10.3 | 20.6 | Cc1noc(C)c1-c1cc(NC(=O)C2(F)CC2)ccc1OCCN1CCC1 [Compound 117, N-[4-[2-(azetidin-1-yl)ethoxy]-3-(3,5-dimethylisoxazol-4-yl)phenyl]-1-fluoro-cyclopropanecarboxamide] |
| ≥ 100000 | ≥ 100000 | 4.01 | 36.2 | Cc1nscc1C(=O)Nc1ccc(OC[C@H]2CCCCN2)c(-c2c(C)noc2C)c1 [Compound 187, (R)—N-(3-(3,5-dimethylisoxazol-4-yl)-4-(piperidin-2-ylmethoxy)phenyl)-3-methylisothiazole-4-carboxamide] |
| 4920 | 3390 | 2.1 | 44.2 | Cc1noc(C)c1-c1cc(NC(=O)c2ccc(F)cc2)ccc1OC1CNC1 [Compound 242, N-(4-(azetidin-3-yloxy)-3-(3,5-dimethylisoxazol-4-yl)phenyl)-4-fluorobenzamide] |
| – | ≥ 100000 | 3.18 | 19.7 | Cc1ncsc1CC(=O)Nc1ccc(OC[C@H]2CCCCN2)c(-c2c(C)noc2C)c1 [Compound 225, (R)—N-(3-(3,5-dimethylisoxazol-4-yl)-4-(piperidin-2-ylmethoxy)phenyl)-2-(4-methylthiazol-5-yl)acetamide] |
| ≥ 100000 | ≥ 100000 | 1.64 | 9.5 | Cc1noc(C)c1-c1cc(NC(=O)Cc2ccns2)ccc1OC[C@H]1CCCCN1 [Compound 233, (R)—N-(3-(3,5-dimethylisoxazol-4-yl)-4-(piperidin-2-ylmethoxy)phenyl)-2-(isothiazol-5-yl)acetamide] |
| ≥ 100000 | ≥ 100000 | 4.85 | 21.8 | Cc1noc(C)c1-c1cc(NC(=O)c2ccccc2)ccc1OC[C@H]1CCCCN1 [Compound 218, (R)—N-(3-(3,5-dimethylisoxazol-4-yl)-4-(piperidin-2-ylmethoxy)phenyl)benzamide] |
| ≥ 100000 | ≥ 100000 | 3.86 | 24.8 | Cc1nonc1C(=O)Nc1ccc(OC[C@H]2CCCCN2)c(-c2c(C)noc2C)c1 [Compound 232, (R)—N-(3-(3,5-dimethylisoxazol-4-yl)-4-(piperidin-2-ylmethoxy)phenyl)-4-methyl-1,2,5-oxadiazole-3-carboxamide] |
| ≥ 100000 | ≥ 100000 | 1.69 | 14.7 | Cc1noc(C)c1-c1cc(NC(=O)Cc2cccc(F)c2)ccc1OC[C@H]1CCCCN1 [Compound 223, (R)—N-(3-(3,5-dimethylisoxazol-4-yl)-4-(piperidin-2-ylmethoxy)phenyl)-2-(3-fluorophenyl)acetamide] |
| ≥ 100000 | ≥ 100000 | 14.9 | 85.5 | CO[C@H]1CCN(CCOc2ccc(NC(=O)C3CC3)cc2-c2c(C)noc2C)C1 [Compound 144, (S)—N-(3-(3,5-dimethylisoxazol-4-yl)-4-(2-(3-methoxypyrrolidin-1-yl)ethoxy)phenyl)cyclopropanecarboxamide] |
| – | – | 2.7 | 8.92 | COc1cccc(C(=O)Nc2ccc(OCCN3CCC3)c(-c3c(C)noc3C)c2)c1 [Compound 122, N-(4-(2-(azetidin-1-yl)ethoxy)-3-(3,5-dimethylisoxazol-4-yl)phenyl)-3-methoxybenzamide] |
| – | ≥ 100000 | 4.91 | 31.1 | Cc1noc(C)c1-c1cc(NC(=O)[C@@H]2C[C@@H]2F)ccc1OC[C@H]1CCCCN1 [Compound 192, (1S,2S)—N-(3-(3,5-dimethylisoxazol-4-yl)-4-(((R)-piperidin-2-yl)methoxy)phenyl)-2-fluorocyclopropane-1-carboxamide] |
| ≥ 100000 | ≥ 100000 | 2.16 | 13 | Cc1noc(C)c1-c1cc(NC(=O)C2CC2)ccc1OC[C@H]1CCCCN1 [Compound 169, N-[3-(3,5-dimethylisoxazol-4-yl)-4-[[(2R)-2-piperidyl]methoxy]phenyl]cyclopropanecarboxamide] |
| – | ≥ 100000 | 6.17 | 6.17 | Cc1noc(C)c1-c1cc(NC(=O)c2c(F)cnn2C)ccc1OC[C@H]1CCCCN1 [Compound 230, (R)—N-(3-(3,5-dimethylisoxazol-4-yl)-4-(piperidin-2-ylmethoxy)phenyl)-4-fluoro-1-methyl-1H-pyrazole-5-carboxamide] |
| ≥ 100000 | ≥ 100000 | 9.47 | 49.7 | Cc1noc(C)c1-c1cc(NC(=O)C2CC2)ccc1OCCN1CCC2(CCC(=O)O2)CC1 [Compound 141, N-(3-(3,5-dimethylisoxazol-4-yl)-4-(2-(2-oxo-1-oxa-8-azaspiro[4.5]decan-8-yl)ethoxy)phenyl)cyclopropanecarboxamide] |
| ≥ 100000 | ≥ 100000 | 4.22 | 17.8 | Cc1noc(C)c1-c1cc(NC(=O)Cc2ccccc2)ccc1OC[C@H]1CCCCN1 [Compound 221, (R)—N-(3-(3,5-dimethylisoxazol-4-yl)-4-(piperidin-2-ylmethoxy)phenyl)-2-phenylacetamide] |
| – | ≥ 100000 | 1.21 | 5.19 | Cc1noc(C)c1-c1cc(NC(=O)C2(F)CC2)ccc1OC[C@H]1CCCCN1 [Compound 217, (R)—N-(3-(3,5-dimethylisoxazol-4-yl)-4-(piperidin-2-ylmethoxy)phenyl)-1-fluorocyclopropane-1-carboxamide] |
| – | ≥ 100000 | 6.5 | 109 | Cc1noc(C)c1-c1cc(NC(=O)C2CC2)ccc1OC1CNC1 [Compound 172, N-(4-(azetidin-3-yloxy)-3-(3,5-dimethylisoxazol-4-yl)phenyl)cyclopropanecarboxamide] |
| – | – | 4.67 | 29.7 | Cc1noc(C)c1-c1cc(NC(=O)c2ccc(F)cc2)ccc1OCCN1CCC1 [Compound 121, N-(4-(2-(azetidin-1-yl)ethoxy)-3-(3,5-dimethylisoxazol-4-yl)phenyl)-4-fluorobenzamide] |
| – | ≥ 100000 | 4.5 | 38.2 | Cc1noc(C)c1-c1cc(NC(=O)Cc2cccc(F)c2)ccc1OCCN1CCC1 [Compound 125, N-(4-(2-(azetidin-1-yl)ethoxy)-3-(3,5-dimethylisoxazol-4-yl)phenyl)-2-(3-fluorophenyl)acetamide] |

| Compound | IC50 (5-HT2C receptor) [nM] | IC50 (5-HT2B receptor) [nM] | Ki (5-HT2A receptor [1]) [nM] | IC50 (5-HT2A receptor [2]) [nM] |
| --- | --- | --- | --- | --- |
| CC(=N)NCCOc1ccc(NC(=O)C2CC2)cc1-c1c(C)noc1C [Compound 198, N-(4-(2-acetimidamidoethoxy)-3-(3,5-dimethylisoxazol-4-yl)phenyl)cyclopropanecarboxamide] | 3730 | ≥ 100000 | 5.39 | 22.8 |
| Cc1cnoc1C(=O)Nc1ccc(OC[C@H]2CCCCN2)c(-c2c(C)noc2C)c1 [Compound 195, (R)—N-(3-(3,5-dimethylisoxazol-4-yl)-4-(piperidin-2-ylmethoxy)phenyl)-4-methylisoxazole-5-carboxamide] | – | – | 15.2 | – |
